In patent publication US9624229B2, “Pyrimidine-2-amine compounds and their use as inhibitors of JAK kinases” (Rigel Pharmaceuticals, Inc., priority 2008, dated 2017):
Read-outs that look alike come from different tables or passages of the source.

Molecular target: Ba/F3 V617F cells (Homo sapiens, UniProt O60674, V617F, cells depend on it)
Assay: Proliferation assay (Cell Titer-Glo, 72 h) utilizing Ba/F3 V617F cells
Assay type: cell-based, mouse
Procedure: Ba/F3 V617F cells are maintained and plated in RPMI with 10% FBS. Plating density for these cells is 1×10^5 cells/mL.
The cells were resuspended in a corresponding medium at a required cell density (see above). 100μ of cell suspension was added to each well of a flat bottom 96 well white plate. The compound was serially diluted in DMSO from 5 mM in 3-fold dilutions, and then diluted 1:250 in the RPMI 1640 medium containing 5% FBS and pen/strep. 100 μL of resulting 2× compound solution was added per well in duplicate and the cells were allowed to proliferate for 72 hours at 37° C.
Proliferation was measured using Cell Titer-Glo. The substrate was thawed and allowed to come to ambient temperature. After removal of top 100 μL of medium from each well, 100 μL of the premixed Cell Titer-Glo reagent was added to each well. The plates were mixed on an orbital shaker for three minutes to induce lysis and incubated at ambient temperature for an additional five minutes to allow the signal to equilibrate. The Luminescence was read on the Wallac Plate Reader.
The results of the ability of the compounds of the invention to inhibit JAK2 activity, when tested in the above assay utilizing Ba/F3 V617F cells, are shown in the following Tables 2-3 wherein the level of activity (i.e., the IC50) for each compound is indicated in Tables 2-3. The compound numbers in Tables 2-3 refers to the compounds disclosed herein as being prepared by the methods disclosed herein: […]

[1] = Ba/F3 V617F cells, proliferation, level of activity to inhibit JAK2, read-out: IC50 (the source's name)
[2] = Ba/F3 V617F cells, proliferation, level of activity given as class symbol, read-out: IC50 (the source's name)
[3] = inhibition of JAK2 activity, proliferation of Ba/F3 V617F cells, read-out: IC50 (the source's name)

Sequence of Ba/F3 V617F cells (O60674 whole entry V617F): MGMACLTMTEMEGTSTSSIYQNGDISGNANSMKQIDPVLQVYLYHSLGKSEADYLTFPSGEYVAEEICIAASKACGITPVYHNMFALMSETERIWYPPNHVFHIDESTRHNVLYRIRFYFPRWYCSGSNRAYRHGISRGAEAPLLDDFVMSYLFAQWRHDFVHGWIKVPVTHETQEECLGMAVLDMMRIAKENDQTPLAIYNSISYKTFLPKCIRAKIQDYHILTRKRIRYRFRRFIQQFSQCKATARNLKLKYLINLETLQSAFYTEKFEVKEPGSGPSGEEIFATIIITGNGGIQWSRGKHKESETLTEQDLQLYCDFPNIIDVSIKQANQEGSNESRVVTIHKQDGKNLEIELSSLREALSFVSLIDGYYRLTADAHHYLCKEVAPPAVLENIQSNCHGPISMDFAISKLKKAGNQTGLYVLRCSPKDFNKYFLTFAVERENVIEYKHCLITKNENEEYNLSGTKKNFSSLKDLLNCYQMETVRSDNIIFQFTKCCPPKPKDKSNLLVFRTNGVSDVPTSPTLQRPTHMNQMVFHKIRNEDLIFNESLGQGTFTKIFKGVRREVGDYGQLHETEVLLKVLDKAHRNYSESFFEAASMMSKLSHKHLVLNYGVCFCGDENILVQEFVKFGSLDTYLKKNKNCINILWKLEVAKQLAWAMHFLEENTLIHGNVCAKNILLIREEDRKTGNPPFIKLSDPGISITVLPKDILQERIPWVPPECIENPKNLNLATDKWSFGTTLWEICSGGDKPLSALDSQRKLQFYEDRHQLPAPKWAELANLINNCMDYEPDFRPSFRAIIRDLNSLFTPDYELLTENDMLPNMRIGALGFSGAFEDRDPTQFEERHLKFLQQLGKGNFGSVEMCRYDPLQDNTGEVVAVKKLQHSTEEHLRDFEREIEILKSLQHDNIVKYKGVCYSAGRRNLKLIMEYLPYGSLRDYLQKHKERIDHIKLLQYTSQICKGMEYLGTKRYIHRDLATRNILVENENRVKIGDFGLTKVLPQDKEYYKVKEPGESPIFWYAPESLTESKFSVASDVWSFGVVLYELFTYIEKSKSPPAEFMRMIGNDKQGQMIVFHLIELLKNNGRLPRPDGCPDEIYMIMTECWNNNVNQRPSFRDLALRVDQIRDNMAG

Row | GI50 [1] [nM] | GI50 [2] [nM] | SMILES | also measured
1 | < 1000 |  | Cc1cc(Nc2nccc(-c3ccc(NC(=O)CN4CCOCC4)nc3)n2)ccc1N1C[C@@H]2C[C@H]1CN2C [compound 141, 4-(6-(2-(morpholin-4-yl)acetamido)pyridin-3-yl)-N-(3-methyl-4-((1S,4S)-5-methyl-2,5-diazabicyclo[2.2.1]heptan-2-yl)phenyl)pyrimidin-2-amine] | 
2 |  | < 1000 | Cc1cc(Nc2nccc(-c3ccc(N4CCOCC4)nc3)n2)ccc1N1C2CCC1CC(N(C)C)C2 (stereo not drawn) [compound 286, 4-(6-(morpholin-4-yl)pyridin-3-yl)-N-(3-methyl-4-(3-(dimethylamino)-8-azabicyclo[3.2.1]octan-8-yl)phenyl)pyrimidin-2-amine] | 
3 | < 1000 |  | Cc1cc(Nc2nccc(-c3cnc4c(c3)CCC(=O)N4)n2)ccc1N1C[C@@H]2C[C@H]1CN2C [compound 51, 4-(7-oxo-5,6,7,8-tetrahydro-1,8-naphthyridin-3-yl)-N-(3-methyl-4-((1S,4S)-5-methyl-2,5-diazabicyclo[2.2.1]heptan-2-yl)phenyl)pyrimidin-2-amine] | 
4 |  | < 1000 | Cc1cc(Nc2nccc(-c3ccc(N4CCOCC4)nc3)n2)ccc1N1CCN2CC[C@@H]1C2 [compound 276, 4-(6-(morpholin-4-yl)pyridin-3-yl)-N-(3-methyl-4-((R)-1,4-diazabicyclo[3.2.1]octan-4-yl)phenyl)pyrimidin-2-amine] | 
5 | 1000 to 10000 |  | Cc1cc(Nc2nccc(-c3cnc(N4CCOCC4)cn3)n2)ccc1N1C[C@@H]2C[C@H]1CN2C [compound 178, 4-(5-(morpholin-4-yl)pyrazin-2-yl)-N-(3-methyl-4-((1S,4S)-5-methyl-2,5-diazabicyclo[2.2.1]heptan-2-yl)phenyl)pyrimidin-2-amine] | 
6 |  | < 1000 | Cc1cc(Nc2nccc(-c3ccc(NCCC(C)C)nc3)n2)ccc1N1C[C@@H]2C[C@H]1CN2C [compound 217, 4-(6-(3-methylbutyl)aminopyridin-3-yl)-N-(3-methyl-4-((1S,4S)-5-methyl-2,5-diazabicyclo[2.2.1]heptan-2-yl)phenyl)pyrimidin-2-amine] | 
7 | < 1000 |  | Cc1cc(Nc2nccc(-c3ccc4c(c3)CC(=O)N4)n2)ccc1N1C[C@@H]2C[C@H]1CN2C [compound 113, 4-(2-oxoindolin-5-yl)-N-(3-methyl-4((1S,4S)-5-methyl-2,5-diazabicyclo[2.2.1]heptan-2-yl)phenyl)pyrimidin-2-amine] | 
8 |  | < 1000 | Cc1cc(Nc2nccc(-c3ccc(N4CCCOCC4)nc3)n2)ccc1N1C[C@@H]2C[C@H]1CN2C [compound 206, 4-(6-(1,4-oxazepan-4-yl)pyridin-3-yl)-N-(3-methyl-4-((1S,4S)-5-methyl-2,5-diazabicyclo[2.2.1]heptan-2-yl)phenyl)pyrimidin-2-amine] | 

More lines, now with the values behind:

Row | SMILES | GI50 [1] [nM] | GI50 [2] [nM] | also measured
9 | Cc1cc(Nc2nccc(-c3cnc4[nH]ccc4c3)n2)ccc1N1C[C@@H]2C[C@H]1CO2 [compound 33, 4-(1H-pyrrolo[2,3-b]pyridin-5-yl)-N-(3-methyl-4-((1S,4S)-5-oxa-2-azabicyclo[2.2.1]heptan-2-yl)phenyl)pyrimidin-2-amine] | < 1000 |  | 
10 | Cc1cc(Nc2nccc(-c3ccc(OC4CCOCC4)nc3)n2)ccc1N1CCN2CCC1C2 (stereo not drawn) [compound 275, 4-(6-(tetrahydropyran-4-yloxy)pyridin-3-yl)-N-(3-methyl-4-(1,4-diazabicyclo[3.2.1]octan-4-yl)phenyl)pyrimidin-2-amine] |  | < 1000 | 
11 | CN1C[C@@H]2C[C@H]1CN2c1ccc(Nc2nccc(-c3ccc4c(c3)SCC(=O)N4)n2)cc1C#N [compound 273, 4-(3-oxo-3,4-dihydro-2H-benzo[b][1,4]thiazin-7-yl)-N-(3-cyano-4-((1S,4S)-5-methyl-2,5-diazabicyclo[2.2.1]heptan-2-yl)phenyl)pyrimidin-2-amine] |  | < 1000 | 
12 | CN(C)c1ccc(-c2ccnc(Nc3ccc(N4C[C@@H]5C[C@H]4CN5C)nc3)n2)cn1 [compound 54, 4-(6-(dimethylamino)pyridin-3-yl)-N-(6-((1S,4S)-5-methyl-2,5-diazabicyclo[2.2.1]heptan-2-yl)pyridin-3-yl)pyrimidin-2-amine] |  |  | GI50 [3]: 1000 to 10000 nM
13 | CCN(CC)c1nc(-c2ccnc(Nc3ccc(N4C[C@@H]5C[C@H]4CN5C)c(C)c3)n2)cs1 [compound 163, 4-(2-(diethylamino)thiazol-4-yl)-N-(3-methyl-4-((1S,4S)-5-methyl-2,5-diazabicyclo[2.2.1]heptan-2-yl)phenyl)pyrimidin-2-amine] | < 1000 |  | 
14 | CC(=O)N1C[C@@H]2C[C@H]1CN2c1ccc(Nc2nccc(-c3ccc(OC4CCOCC4)nc3)n2)cc1Cl [compound 260, 4-(6-(tetrahydropyran-4-yloxy)pyridin-3-yl)-N-(3-chloro-4-((1S,4S)-5-acetyl-2,5-diazabicyclo[2.2.1]heptan-2-yl)phenyl)pyrimidin-2-amine] |  | 1000 to 10000 | 
15 | CN1CC2(C)CN(c3ccc(Nc4nccc(-c5ccc(Cc6ccccc6)nc5)n4)cc3F)CC(C)(C1)C2 [compound 91, 4-(6-(benzyl)pyridin-3-yl)-N-(3-fluoro-4-(1,5,7-trimethyl-3,7-diazabicyclo[3.3.1]nonan-3-yl)phenyl)pyrimidin-2-amine] | < 1000 |  | 
16 | Cc1cc(Nc2nccc(-c3cnc4c(c3)OC(C)(C)C(=O)N4)n2)ccc1N1C[C@@H]2C[C@H]1CN2S(N)(=O)=O [compound 38, 4-(2,2-dimethyl-3-oxo-3,4-dihydro-2H-pyrido[3,2-b][1,4]oxazin-7-yl)-N-(3-methyl-4-((1S,4S)-5-(aminosulfonyl)-2,5-diazabicyclo[2.2.1]heptan-2-yl)phenyl)pyrimidin-2-amine] | < 1000 |  | 
17 | Cc1cc(Nc2nccc(-c3ccc4c(c3)CC(=O)N4)n2)ccc1N1CCN2CCC1C2 (stereo not drawn) [compound 121, 4-(2-oxoindolin-5-yl)-N-(3-methyl-4-(1,4-diazabicyclo[3.2.1]octan-4-yl)phenyl)pyrimidin-2-amine] | < 1000 |  | 
18 | CCOCCCNc1ccc(-c2ccnc(Nc3ccc(N4CC5(C)CN(C)CC(C)(C4)C5)c(C)c3)n2)cn1 [compound 211, 4-(6-(3-ethoxypropyl)aminopyridin-3-yl)-N-(3-methyl-4-(1,5,7-trimethyl-3,7-diazabicyclo[3.3.1]nonan-3-yl)phenyl)pyrimidin-2-amine] |  | < 1000 | 
19 | CNC(=O)Cc1ccc(-c2ccnc(Nc3ccc(N4C[C@@H]5C[C@H]4CN5C)c(C)c3)n2)cc1 [compound 48, 4-(4-((methyl)aminocarbonylmethyl)-phenyl)-N-(3-methyl-4-((1S,4S)-5-methyl-2,5-diazabicyclo[2.2.1]heptan-2-yl)phenyl)pyrimidin-2-amine] | 1000 to 10000 |  | 
20 | Cc1cc(Nc2nccc(-c3cc4cc(C#N)ccc4[nH]3)n2)ccc1N1C[C@@H]2C[C@H]1CN2C [compound 108, 4-(5-cyano-1H-indol-2-yl)-N-(3-methyl-4-((1S,4S)-5-methyl-2,5-diazabicyclo[2.2.1]heptan-2-yl)phenyl)pyrimidin-2-amine] | < 1000 |  | 
21 | Cc1cc(Nc2nccc(-c3cnc4c(c3)OC(C)(C)C(=O)N4)n2)ccc1N1C[C@@H]2C[C@H]1CN2S(C)(=O)=O [compound 29, 4-(2,2-dimethyl-3-oxo-3,4-dihydro-2H-pyrido[3,2-b][1,4]oxazin-7-yl)-N-(3-methyl-4-((1S,4S)-5-(methylsulfonyl)-2,5-diazabicyclo[2.2.1]heptan-2-yl)phenyl)pyrimidin-2-amine] | < 1000 |  | 
22 | CN1C[C@@H]2C[C@H]1CN2c1ccc(Nc2nccc(-c3cnc(N4CCOCC4)cn3)n2)cn1 [compound 180, 4-(5-(morpholin-4-yl)pyrazin-2-yl)-N-(6-((1S,4S)-5-methyl-2,5-diazabicyclo[2.2.1]heptan-2-yl)pyridin-3-yl)pyrimidin-2-amine] |  |  | GI50 [3]: 1000 to 10000 nM
23 | Cc1cc(Nc2nccc(-c3cnc4c(c3)OCCN4C)n2)ccc1N1C[C@@H]2C[C@H]1CN2S(C)(=O)=O [compound 193, 4-(4-methyl-3,4-dihydro-2H-pyrido[3,2-b][1,4]oxazin-7-yl)-N-(3-methyl-4-((1S,4S)-5-methylsulfonyl-2,5-diazabicyclo[2.2.1]heptan-2-yl)phenyl)pyrimidin-2-amine] |  | < 1000 | 
24 | CN1CC2(C)CN(c3ccc(Nc4nccc(-c5ccc(N(C)C)nc5)n4)cc3F)CC(C)(C1)C2 [compound 83, 4-(6-(dimethylamino)pyridin-3-yl)-N-(3-fluoro-4-(1,5,7-trimethyl-3,7-diazabicyclo[3.3.1]nonan-3-yl)phenyl)pyrimidin-2-amine] | < 1000 |  | 
25 | Cc1cc(Nc2nccc(-c3ccc(N(C)C)cc3)n2)cnc1N1C[C@@H]2C[C@H]1CN2C [compound 62] |  |  | GI50 [3]: 1000 to 10000 nM
26 | CN1C[C@@H]2C[C@H]1CN2c1ccc(Nc2nccc(-c3ccc(NC(=O)C(C)(C)C)cc3)n2)cc1F [compound 128, 4-(4-(t-butylcarbonylamino)phenyl)-N-(3-fluoro-4-((1S,4S)-5-methyl-2,5-diazabicyclo[2.2.1]heptan-2-yl)phenyl)pyrimidin-2-amine] | < 1000 |  | 
27 | Cc1cc(Nc2nccc(-c3cnc4c(c3)CCC(=O)N4)n2)ccc1N1C[C@@H]2C[C@H]1CN2S(C)(=O)=O [compound 237, 4-(7-oxo-5,6,7,8-tetrahydro-1,8-naphthyridin-3-yl)-N-(3-methyl-4-((1S,4S)-5-methylsulfonyl-2,5-diazabicyclo[2.2.1]heptan-2-yl)phenyl)pyrimidin-2-amine] |  | < 1000 | 
